Measured values as given in PMC8406774, “A Comparison of Two Monoterpenoid Synthases Reveals Molecular Mechanisms Associated With the Difference of Bioactive Monoterpenoids Between Amomum villosum and Amomum longiligulare” (Frontiers in Plant Science, 2021).

Tests used:
Test in all cases: GC-MS of terpene products after phosphatase treatment
Assay type in all cases: biochemical
[1] = molecular target: T1, AlTPS3 (Wurfbainia longiligularis, UniProt A0A7L7T473, A496G); conditions: overnight incubation with GPP; conserved DTE motif
T1 construct: gene TPS3; ORF 1791 bp, printed as 597 residues; predicted 47-residue N-terminal plastid transit peptide removed

[2] = molecular target: T2, AvBPPS (Wurfbainia villosa, UniProt A0A2Z4K4Q8); conditions: 30 C, 1 h; then alkaline phosphatase 37 C
T2 construct: gene TPS3; full length 596 residues; recombinant, cloned in the authors' earlier work (Wang et al. 2018); truncation and tag not restated here

[3] = molecular target: T3, AvTPS2 (Wurfbainia villosa, UniProt A0A7L7TAQ2); conditions: 30 C, 1 h; then alkaline phosphatase 37 C
T3 construct: gene TPS2; full ORF 587 residues; predicted 34-residue N-terminal plastid transit peptide removed
T3 sequence (A0A7L7TAQ2 35-587): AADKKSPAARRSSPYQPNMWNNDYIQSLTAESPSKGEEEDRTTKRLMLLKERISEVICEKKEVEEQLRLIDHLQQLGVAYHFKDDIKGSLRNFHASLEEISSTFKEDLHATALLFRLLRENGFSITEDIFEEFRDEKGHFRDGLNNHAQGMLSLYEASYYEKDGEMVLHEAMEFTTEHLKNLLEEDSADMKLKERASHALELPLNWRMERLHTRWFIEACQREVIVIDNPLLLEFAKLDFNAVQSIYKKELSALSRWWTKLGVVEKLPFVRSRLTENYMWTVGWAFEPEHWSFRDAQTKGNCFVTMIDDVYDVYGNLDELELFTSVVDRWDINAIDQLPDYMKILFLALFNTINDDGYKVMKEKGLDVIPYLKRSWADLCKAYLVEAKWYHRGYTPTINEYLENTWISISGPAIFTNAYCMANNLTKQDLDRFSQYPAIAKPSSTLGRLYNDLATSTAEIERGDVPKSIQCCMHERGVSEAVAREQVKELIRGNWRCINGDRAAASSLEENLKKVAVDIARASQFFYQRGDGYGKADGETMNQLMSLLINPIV

[4] = molecular target: T4, AlTPS3 (Wurfbainia longiligularis, UniProt A0A7L7T473); conditions: 30 C, 1 h; then alkaline phosphatase 37 C
T4 construct: gene TPS3; ORF 1791 bp, printed as 597 residues; predicted 47-residue N-terminal plastid transit peptide removed
T4 sequence (A0A7L7T473 48-597): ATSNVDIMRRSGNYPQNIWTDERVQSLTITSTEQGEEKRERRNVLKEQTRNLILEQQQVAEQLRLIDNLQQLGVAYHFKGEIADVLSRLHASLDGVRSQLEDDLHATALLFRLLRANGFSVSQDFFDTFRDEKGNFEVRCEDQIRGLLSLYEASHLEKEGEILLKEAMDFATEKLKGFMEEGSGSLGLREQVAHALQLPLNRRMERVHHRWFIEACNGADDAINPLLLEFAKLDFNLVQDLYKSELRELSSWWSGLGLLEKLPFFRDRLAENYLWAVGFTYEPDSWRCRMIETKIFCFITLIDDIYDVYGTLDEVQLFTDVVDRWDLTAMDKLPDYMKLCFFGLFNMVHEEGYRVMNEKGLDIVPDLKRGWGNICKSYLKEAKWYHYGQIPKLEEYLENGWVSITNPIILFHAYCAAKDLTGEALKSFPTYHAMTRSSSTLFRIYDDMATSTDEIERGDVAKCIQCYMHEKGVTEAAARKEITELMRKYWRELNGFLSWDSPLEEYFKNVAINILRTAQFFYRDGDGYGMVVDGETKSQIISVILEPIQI

[5] = molecular target: T5, AlTPS2 (Wurfbainia longiligularis, UniProt A0A7L7T499); conditions: 30 C, 1 h; then alkaline phosphatase 37 C
T5 construct: gene TPS2; full ORF 587 residues; predicted 34-residue N-terminal plastid transit peptide removed; MBP fusion (pMAL-c5X), E. coli Rosetta (DE3), about 108 kDa, tag kept
T5 sequence (A0A7L7T499 35-587): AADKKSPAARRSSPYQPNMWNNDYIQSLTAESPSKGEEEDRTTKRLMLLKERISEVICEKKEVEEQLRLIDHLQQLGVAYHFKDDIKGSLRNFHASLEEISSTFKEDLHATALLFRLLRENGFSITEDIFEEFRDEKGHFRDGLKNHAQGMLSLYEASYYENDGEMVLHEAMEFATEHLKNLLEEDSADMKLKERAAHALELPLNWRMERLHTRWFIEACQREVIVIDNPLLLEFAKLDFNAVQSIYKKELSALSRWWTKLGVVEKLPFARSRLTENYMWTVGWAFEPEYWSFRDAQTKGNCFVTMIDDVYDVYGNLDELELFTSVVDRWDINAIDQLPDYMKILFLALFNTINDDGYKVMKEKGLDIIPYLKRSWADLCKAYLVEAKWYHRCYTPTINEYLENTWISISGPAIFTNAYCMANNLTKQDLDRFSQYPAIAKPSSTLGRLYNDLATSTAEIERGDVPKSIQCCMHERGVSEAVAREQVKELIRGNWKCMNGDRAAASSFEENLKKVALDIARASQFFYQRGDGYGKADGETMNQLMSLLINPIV

T1 sequence (A0A7L7T473 entry or part of it A496G): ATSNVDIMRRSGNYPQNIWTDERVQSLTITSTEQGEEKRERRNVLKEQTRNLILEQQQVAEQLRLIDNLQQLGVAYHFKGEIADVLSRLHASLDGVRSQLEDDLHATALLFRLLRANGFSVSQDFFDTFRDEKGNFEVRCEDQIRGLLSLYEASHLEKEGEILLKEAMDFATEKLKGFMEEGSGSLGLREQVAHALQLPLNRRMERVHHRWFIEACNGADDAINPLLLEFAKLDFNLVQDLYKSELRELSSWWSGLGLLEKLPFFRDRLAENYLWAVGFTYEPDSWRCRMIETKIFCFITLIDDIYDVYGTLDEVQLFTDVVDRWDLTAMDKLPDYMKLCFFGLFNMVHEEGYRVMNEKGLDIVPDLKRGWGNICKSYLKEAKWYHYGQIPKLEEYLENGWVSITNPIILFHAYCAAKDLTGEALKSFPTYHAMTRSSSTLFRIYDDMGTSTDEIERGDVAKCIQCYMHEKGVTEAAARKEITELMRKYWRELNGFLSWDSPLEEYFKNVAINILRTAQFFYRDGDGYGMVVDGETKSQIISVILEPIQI
T2 sequence (A0A2Z4K4Q8 entry or part of it): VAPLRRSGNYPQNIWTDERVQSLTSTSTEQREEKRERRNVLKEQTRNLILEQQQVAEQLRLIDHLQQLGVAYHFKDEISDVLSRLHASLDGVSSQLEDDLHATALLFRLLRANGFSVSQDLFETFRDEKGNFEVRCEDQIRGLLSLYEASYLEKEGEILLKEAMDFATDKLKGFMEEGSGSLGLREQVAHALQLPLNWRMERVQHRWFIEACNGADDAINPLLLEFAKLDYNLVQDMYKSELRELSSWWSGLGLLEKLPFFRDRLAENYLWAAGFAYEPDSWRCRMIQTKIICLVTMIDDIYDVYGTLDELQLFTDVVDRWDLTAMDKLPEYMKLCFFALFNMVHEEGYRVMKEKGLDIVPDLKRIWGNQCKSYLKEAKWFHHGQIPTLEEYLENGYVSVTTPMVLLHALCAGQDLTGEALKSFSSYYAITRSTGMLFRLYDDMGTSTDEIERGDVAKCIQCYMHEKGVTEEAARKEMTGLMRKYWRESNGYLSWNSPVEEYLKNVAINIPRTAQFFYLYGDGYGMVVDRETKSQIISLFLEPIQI

**Q.** What does the source list for `CC(C)=CCC/C(C)=C/COP(=O)(O)OP(=O)(O)O` [GPP]?
**A.** GC-MS of terpene products after phosphatase treatment [1]: the site-directed mutant of AlTPS3-A496G and AvBPPS-G495A were constructed, and the overnight reaction with GPP; GC-MS of terpene products after phosphatase treatment [2]: reaction products generated by recombinant protein AlTPS3 and AvBPPS from GPP; GC-MS of terpene products after phosphatase treatment [3]: When the substrate was GPP, AlTPS2, and AvTPS2 produced the monoterpene product linalool; GC-MS of terpene products after phosphatase treatment [4]: AlTPS3 recombinant protein catalyzed GPP to produce camphene as the major product; GC-MS of terpene products after phosphatase treatment [5]: When the substrate was GPP, AlTPS2, and AvTPS2 produced the monoterpene product linalool
